# Measured values reported in US11428689B2, “Methods and uses for remotely triggered protease activity measurements” (Massachusetts Institute of Technology, priority 2016, dated 2022).
# Entries after “also recorded” stand apart in the source; their conditions may differ. Where no end group is shown, it is not given here. [ ]: non-standard residue; d: D form. FAM = fluorescein
# Key:
# [1] = target: T1, MMP2 (Homo sapiens, UniProt P08253); test: In vitro recombinant protease assay with streptavidin depletion; format: biochemical; settings: ~100 nM MMP, one hour
# T1 construct: purchased Enzo Life Sciences
# T1 sequence (P08253 110-660): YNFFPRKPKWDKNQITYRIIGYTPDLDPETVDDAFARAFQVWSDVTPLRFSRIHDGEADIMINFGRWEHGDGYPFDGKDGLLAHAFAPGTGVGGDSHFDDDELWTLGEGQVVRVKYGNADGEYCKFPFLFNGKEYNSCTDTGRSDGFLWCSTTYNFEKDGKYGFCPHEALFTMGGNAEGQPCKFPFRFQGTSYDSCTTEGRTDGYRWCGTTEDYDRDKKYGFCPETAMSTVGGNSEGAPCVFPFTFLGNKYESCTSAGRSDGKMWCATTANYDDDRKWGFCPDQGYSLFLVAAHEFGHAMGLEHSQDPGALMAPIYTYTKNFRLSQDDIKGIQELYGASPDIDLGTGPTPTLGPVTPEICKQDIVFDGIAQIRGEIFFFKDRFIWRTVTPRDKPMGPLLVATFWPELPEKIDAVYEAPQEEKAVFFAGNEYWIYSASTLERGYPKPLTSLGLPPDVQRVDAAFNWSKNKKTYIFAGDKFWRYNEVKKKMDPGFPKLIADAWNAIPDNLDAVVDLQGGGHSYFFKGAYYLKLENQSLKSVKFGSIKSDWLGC
# Method: (§1) MMPs (˜100 nM working concentration, Enzo Life Sciences) were added to substrates in 384-well plates in activity buffer (50 mM Tris, 150 mM NaCl, 5 mM CaCl2, 1 μM ZnCl2) containing 1% BSA. After one hour, uncleaved peptide was extracted using Dynabeads Strepatividin C1 (Life Technologies) as per manufacturer protocols. An excess of Dynabeads was used.
# [2] = target: T2, MMP9 (Homo sapiens, UniProt P14780); test: as above; format: biochemical; set-up: purchased Enzo Life Sciences; settings: ~100 nM MMP, one hour
# Method: as §1
# [3] = tested on: LS174T flank tumor; settings: LS174T tumor-bearing mice
# Source text: (§2) The in vivo activation protocol was applied to specifically activate the three sets of MAPS to profile tumor protease activity between LS174T and HCT8 tumors.
# [4] = tested on: LS174T; test: Secreted protease activity assay with quenched substrates; format: cell-based, human; settings: for cleavage by cell-secreted proteases: fluorescently quenched versions, LS174T conditioned supernatant
# Method: Next, whether the MAPS(S1-S3) could distinguish MMP profiles of different tumor types was probed. […] Cleavage of the substrates was tested by cell-secreted proteases by employing fluorescently quenched versions and exposing them to conditioned supernatant.
# LS174T and HCT-8 cells were cultured in Eagle's Minimal Essential Medium (ATCC) supplemented with 10% FBS (Gibco) and 1% penicillin-streptomycin (CellGro). Cells were passaged when confluence reached 80%. To isolate secreted proteases, after cells were plated, cells were washed and replaced in serum-free media. Media was collected and MMP2 was measured in supernatant using a Quantikine MMP-2 kit following manufacturer protocols (R&D Systems). Secretion was normalized to number of cells and days in culture. A similar approach was used when collecting supernatants for measuring proteolysis of S1-3.
# [5] = target: plasmin (Homo sapiens, UniProt P00747); test: Proteolysis of alternate DMNPE-veiled substrate; format: biochemical
# Source text: To validate that the approach is generalizable to alternative substrates, the STREAMs principle was applied to a second peptide sequence. Additionally, the reporter for this additional sequence was designed to be orthogonal to the original sequence (containing a near IR dye as opposed to fluorescein). […] The ability to produce STREAMs with orthogonal reporters for multiple substrate targets, in some embodiments, enables multiplexing. Additionally, coupling this approach with alternate modes for multiplexing analyte detection, in some embodiments, enables simultaneous monitoring of several substrates.
# Fluorescein-conjugated peptides (MMP sensitive, C1: FAM-sk-PLGLEEA-GC; SEQ ID NO: 3) were synthesized. D-amino acid controls were also synthesized, where the substrate sequence was all D-stereoisomers. Peptides for in vivo studies that contain a ligand-encoded reporter for urinary clearance and subsequent ELISA detection were synthesized (V1: Biotin-PEG(5 kDa)-(KFAM)-PLGLEEA-GC; SEQ ID NO: 4). The PEG 5 kDa reporter is efficiently cleared by the renal system into the urine and can be quantified by ELISA for the conjugated ligands. The alternate substrate to show STREAMs extensibility was synthesized at a different location (sequence: eGvndneeGffsarKsRLVGEGC; SEQ ID NO: 5). VT750 (PerkinElmer) was conjugated to the free lysine prior to coupling to DMNPE. […]
# [6] = target: T2, MMP9; test: In vitro recombinant protease assay (fluorescence dequenching of NP-bound substrate); format: biochemical; set-up: purchased Enzo Life Sciences
# Method: (§3) C1-NP complexes sensitive to MMP cleavage were mixed with 1% (wt/vol) BSA (Sigma) and incubated with recombinant proteases (MMPs and ADAMs: Enzo Life Sciences; Clotting proteases: Haematologic Technologies) in a final volume of 100 μL in enzyme-specific buffers (MMP buffer: 50 mM Tris, 150 mM NaCl, 5 mM CaCl2, 1 μM ZnCl2, pH 7.5; Clotting proteases: PBS) in a 384-well plate for time-lapse fluorimetry to measure dequenching from homoquenched peptides at 37° C. (SpectroMax Gemini EM Microplate Reader). For the metalloproteinase, enzymes were diluted 1:10 in enzyme specific buffer, and for clotting proteases, enzymes were diluted 1:100. Cleavage heatmap was generated using GENE-E (Broad Institute). Michaelis-Menten constants were determined by assessing initial cleavage velocities at different substrate concentrations. The MMP inhibitor Marimatstat (Tocris) was added to the mixture at 100 μM final concentration. To identify the cleavage position by MMP9, C1-NPs were incubated with MMP9 overnight, and the N-terminal cleavage fragment was isolated and analyzed by MALDI. The sequence corresponding to the dominant peak was identified, and the final amino acid was in that sequence represents the P1 position (toward the N-terminal end from scissile bond). For protease resistance assays, various DMNPE: peptide ratios were reacted overnight and purified prior to being added to proteases.
# (§4) Light activation of peptides for biochemical studies was performed using a CL-1000 UV Cross-linker (UVP, 8 mW/cm^2). Power density was measured by an OAI 306 UV power meter at 365 nm. Typical exposure time for these studies was 10-30 min. For activation in cell and animal studies, Lumen Dynamics UV system with 365 nm fiber light guide was used (OmniCure 1000, 200 mW/cm^2). For in vivo activation at the tumor site, mice were anesthetized, and the light was guided through an optical cable and placed approximately 3 cm from the flank tumor. Each flank tumor was exposed for 30 s.
# [7] = tested on: LS174T cells; test: 3D collagen cancer tissue model, peptide fluorescence in supernatant; format: cell-based, human
# Method: Next, the activation of the nanosensors in a 3D ECM environment was probed. Forty LS174T cells were embedded in collagen I together with veiled or unmodified nanosensors (FIG. 4A). The constructs were monitored for protease activity by collecting the supernatant and measuring liberated peptide fragments under different conditions: L-amino acid peptide substrates were compared to D-amino acid counterparts to measure nonspecific background, and the role of DMPNE veiling was measured.
# In order to correlate regions of light-activation with protease activity measurements, light-activated rhodamine dye was included to visualize regions exposed to light (FIG. 12A). To explore the ability to monitor protease activity with spatial and temporal control, only the left half of the gels was illuminated.
# LS174T cells were encapsulated in 2.5 mg/mL collagen hydrogels (rat tail collagen type I, Corning). Imaging was done on Nikon Eclipse Ti Inverted Microscopes and Zeiss Stereoscope Discovery v20. When protease activity was measured, surrounding media was serum-free.
# [8] = target: T3, MMP13 (Homo sapiens, UniProt P45452); test: In vitro recombinant protease assay (fluorescence dequenching of NP-bound substrate); format: biochemical
# T3 construct: purchased Enzo Life Sciences
# Method: as §3, §4
# [9] = target: T2, MMP9; test: Agarose gel assay; format: biochemical; settings: light exposure 1 min, 200 mW/cm^2
# Method: Agarose (type I-A, Sigma) was dissolved in MMP9 specific buffer (1% w/v) and heated. As the gel mixture was cooling, gel solution was transferred into a 96-well plate and mixed with STREAMs and recombinant MMP9. After gelation, the gels were activated (as above), and fluorescence dequenching through cleavage was monitored using time-lapse fluorimetry.
# [10] = target: T4, recombinant thrombin (Homo sapiens, UniProt P00734); test: In vitro recombinant protease assay (fluorescence release); format: biochemical; settings: veiled vs unmodified
# T4 construct: purchased Haematologic Technologies
# Method: as §3
# [11] = target: T5, MMP7 (Homo sapiens, UniProt P09237); test: In vitro recombinant protease assay (fluorescence dequenching of NP-bound substrate); format: biochemical; settings: 100 μM final concentration
# T5 construct: purchased Enzo Life Sciences
# T5 sequence (P09237 95-267): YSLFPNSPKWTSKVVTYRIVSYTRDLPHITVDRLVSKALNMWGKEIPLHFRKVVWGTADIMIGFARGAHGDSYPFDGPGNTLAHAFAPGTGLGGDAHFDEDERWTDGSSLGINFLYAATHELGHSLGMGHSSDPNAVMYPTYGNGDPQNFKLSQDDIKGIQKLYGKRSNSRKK
# Method: as §3
# [12] = tested on: LS174T cells; test: Secreted protease activity assay, conditioned media; format: cell-based, human; settings: conditioned media from LS174T cells
# Method: LS174T and CCD-18Co (ATCC CRL-1459) cells were cultured in Eagle's Minimal Essential Medium (ATCC) supplemented with 10% FBS (Gibco) and 1% penicillin-streptomycin (CellGro). Cells were passaged when confluence reached 80%. To isolate secreted proteases, after cells were plated, cells were washed and replaced in serum-free media. Conditioned media was collected 24 h later and exposed to C1-NPs to measure fluorescence dequenching.
# [13] = healthy mice
# Source text: as §2
# [14] = target: T5, MMP7; test: In vitro recombinant protease assay with streptavidin depletion; format: biochemical; settings: ~100 nM MMP, one hour
# Method: as §1
# [15] = target: T6, MMP19 (Homo sapiens, UniProt Q99542); test: as above; format: biochemical; settings: ~100 nM MMP, one hour
# T6 construct: purchased Enzo Life Sciences
# T6 sequence (Q99542 98-508): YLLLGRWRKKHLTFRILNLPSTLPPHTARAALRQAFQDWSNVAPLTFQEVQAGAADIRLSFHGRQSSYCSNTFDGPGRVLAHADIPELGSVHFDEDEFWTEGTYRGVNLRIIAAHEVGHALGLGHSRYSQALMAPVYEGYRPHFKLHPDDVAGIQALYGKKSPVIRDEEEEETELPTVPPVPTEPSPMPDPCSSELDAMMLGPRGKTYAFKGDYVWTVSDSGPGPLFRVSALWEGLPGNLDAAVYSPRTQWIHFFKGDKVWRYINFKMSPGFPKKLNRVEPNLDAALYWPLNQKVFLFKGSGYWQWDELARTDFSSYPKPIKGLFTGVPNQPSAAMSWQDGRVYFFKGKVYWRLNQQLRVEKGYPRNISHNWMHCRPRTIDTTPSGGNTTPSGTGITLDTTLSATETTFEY
# Method: as §1
# [16] = increasing periods of light exposure, 8 mW/cm^2
# T2 sequence (P14780 94-707, species assumed): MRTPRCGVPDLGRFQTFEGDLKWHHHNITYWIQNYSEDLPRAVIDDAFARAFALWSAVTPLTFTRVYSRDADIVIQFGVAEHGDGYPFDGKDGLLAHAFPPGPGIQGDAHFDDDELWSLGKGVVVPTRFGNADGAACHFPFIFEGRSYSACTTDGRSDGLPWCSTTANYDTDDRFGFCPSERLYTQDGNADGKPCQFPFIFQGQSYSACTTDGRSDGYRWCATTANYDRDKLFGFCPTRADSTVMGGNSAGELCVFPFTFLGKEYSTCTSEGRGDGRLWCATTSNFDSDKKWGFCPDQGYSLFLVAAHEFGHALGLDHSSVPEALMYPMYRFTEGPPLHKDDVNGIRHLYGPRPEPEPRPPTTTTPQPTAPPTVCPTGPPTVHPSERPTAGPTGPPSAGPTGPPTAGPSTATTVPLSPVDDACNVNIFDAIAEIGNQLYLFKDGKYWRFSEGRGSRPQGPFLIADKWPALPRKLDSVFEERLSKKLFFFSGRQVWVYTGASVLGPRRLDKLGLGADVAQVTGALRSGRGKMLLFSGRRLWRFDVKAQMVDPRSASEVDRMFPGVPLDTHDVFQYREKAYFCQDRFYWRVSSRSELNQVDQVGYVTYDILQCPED
# plasmin, sequence (P00747 581-810 limits assumed, species assumed): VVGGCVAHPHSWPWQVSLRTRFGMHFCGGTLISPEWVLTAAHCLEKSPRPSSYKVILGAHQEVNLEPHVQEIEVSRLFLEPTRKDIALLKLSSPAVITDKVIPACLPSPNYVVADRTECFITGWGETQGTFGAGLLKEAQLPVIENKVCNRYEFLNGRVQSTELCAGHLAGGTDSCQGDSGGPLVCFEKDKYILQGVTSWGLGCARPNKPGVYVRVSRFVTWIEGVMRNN
# plasmin, sequence (P00747 97-580 partner limits assumed, species assumed): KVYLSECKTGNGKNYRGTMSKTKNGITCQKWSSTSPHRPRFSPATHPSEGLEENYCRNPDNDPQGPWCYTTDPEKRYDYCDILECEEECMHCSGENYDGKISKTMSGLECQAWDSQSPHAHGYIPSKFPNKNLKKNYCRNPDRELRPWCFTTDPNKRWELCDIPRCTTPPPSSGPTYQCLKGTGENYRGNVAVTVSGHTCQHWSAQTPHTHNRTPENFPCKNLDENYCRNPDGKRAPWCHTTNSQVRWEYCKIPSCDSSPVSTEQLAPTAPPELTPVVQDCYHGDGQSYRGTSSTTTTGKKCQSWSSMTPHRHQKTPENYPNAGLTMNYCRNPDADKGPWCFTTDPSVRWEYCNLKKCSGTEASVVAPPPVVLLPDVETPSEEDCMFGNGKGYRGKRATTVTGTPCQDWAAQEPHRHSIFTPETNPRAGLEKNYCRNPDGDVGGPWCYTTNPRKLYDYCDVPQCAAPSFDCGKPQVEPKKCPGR
compound,measurement,setting,value
Biotin-CGPVGLIGK(Cy7)eGvndneeGffsar-NH2 [S1],relative proteolysis by MMP2,[1],responded primarily
same,relative proteolysis by MMP9,[2],responded primarily
same,urine signal of free peptide,[3],elevated
same,cleavage by cell-secreted proteases,[4],cleaved most significantly
RLVGEGC [eGvndneeGffsarKsRLVGEGC],proteolysis by plasmin after coupling of DMNPE,[5],reduced proteolysis
same,proteolysis by plasmin after UV exposure,[5]; then UV,recovered
STREAMs: C1-NPs whose peptide is veiled with photolabile DMNPE groups; unveiled by 365 nm light ({FAM}-[dS][dK]PLGLE(DMNPE)E(DMNPE)AGC(iron oxide nanoparticle); not fully specified),proteolysis by MMP9 after exposure to 365 nm light,[6]; [16],elevated proteolysis in a light exposure-dependent manner
same,stability of DMNPE conjugation (resistance to MMP9-mediated cleavage),[6]; two weeks post-DMNPE-coupling,equal levels of protection compared to freshly conjugated samples
same,proteolysis by MMP9 after conjugation with DMNPE,"[6]; veiled vs unmodified, no light",marked reduction in proteolysis
same,liberated peptide fluorescence in supernatant,"[7]; first day, no light",significantly less peptide fluorescence compared to unmodified L-amino acid sensors
same,peptide fluorescence in supernatant after light exposure,"[7]; left half of gels illuminated, 24 h, 30 s at 200 mW/cm^2",higher levels of peptide fluorescence
same,proteolysis by MMP13 after exposure to 365 nm light,[8]; [16],elevated proteolysis in a light exposure-dependent manner
same,proteolysis by MMP13 after conjugation with DMNPE,"[8]; veiled vs unmodified, no light",marked reduction in proteolysis
same,proteolytic cleavage after light exposure in agarose gel,[9],dramatic increase in proteolytic cleavage
same,cleavage by thrombin,[10],reduced cleavage
CNC(=O)[C@@H](NC(=O)[C@H](CC(C)C)[C@H](O)C(=O)NO)C(C)(C)C [Marimastat],effect of inhibitor on proteolysis of C1-NP by MMP7,[11],inhibited; also recorded: abrogates cleavage
same,effect of inhibitor on proteolysis by LS174T secreted proteases,[4],abrogated
FAM-sk-plGleea-GC ({FAM}-[dS][dK][dP][dL]G[dL][dE][dE][dA]GC; also: nanoparticle conjugated) [control NPs conjugated to D-amino acid stereoisomers],cleavage by cell-secreted proteases,[12],not cleaved
Biotin-CGPLGVRGKK(Cy7)eGvndneeGffsar-NH2 [S3],relative proteolysis by MMP2,[1],responded primarily
same,relative proteolysis by MMP9,[2],responded primarily
same,background cleavage of free peptide,[13],lowest background cleavage
same,urine signal of free peptide,[3],similar
same,cleavage by cell-secreted proteases,[4],minimal cleavage
Biotin-CGPVPLSLVMK(Cy7)eGvndneeGffsar-NH2 [S2],relative proteolysis by MMP7,[14],cleaved efficiently
same,relative proteolysis by MMP19,[15],cleaved efficiently
same,urine signal of free peptide,[3],similar
same,cleavage by cell-secreted proteases,[4],minimal cleavage
